{"source": "patent US11510875B2", "about": "“Adjuvant formulations comprising TLR4 agonists and methods of using the same” (priority 2012, dated 2022)", "key": {"[1]": {"tested_on": "PfCelTOS", "assay_type": "in vivo, Plasmodium falciparum", "details": "BALB/c mice; SE dose 0.5%-2% experiment; GLA- or Montanide-containing vaccines"}, "[2]": {"tested_on": "PfCelTOS", "assay": "Antibody endpoint titers (IgG, IgG1, IgG2a) after immunization with PfCelTOS vaccine compositions", "details": "BALB/c mice; SE dose 0.02%-2% experiment; GLA (SE or AF) compared to same vaccine composition without GLA", "description": "On the day of immunization, the emulsion was diluted with PBS to the specified oil concentrations and mixed with antigen and GLA-AF (where applicable). […] Throughout the manuscript the emulsion dose is referred to as the % v/v of oil in the final vaccine formulation; the ratio of oil to emulsifier is kept constant at all doses.\nEndpoint titer was determined using Prism (GraphPad Software, La Jolla, Calif.) following a sigmoidal fit (variable slope) of the values determined at dilution, with the endpoint titer corresponding to a cutoff value (C) determined as described previously [10] with C=X+SDf, where X is the average and SD is the standard deviation of the negative sera control plate, and f is the multiplier at the 99.9% confidence level. A cutoff value of 0.1 OD was assigned if the cutoff value as determined above was less than 0.1 OD. On rare occasions, individual plate wells registered an abnormally high reading near the highest dilutions. These were excluded from the sigmoidal fit by employing the Grubb's test on the suspect value, comparing to the 4 dilutions surrounding the dilution in question at the 99% confidence level [11].\nBALB/c mice were immunized 3 times with PfCelTOS vaccine compositions with 3 weeks between injections."}}, "data": [{"substance": "glucopyranosyl lipid adjuvant [GLA]", "values": [{"measurement": "antibody-secreting plasma cells", "setting": "[1]", "result": "Higher numbers"}, {"measurement": "IgG2a response", "setting": "[2]", "result": "stronger"}]}]}
